In US12077503B2, “Substituted cyclic amides and their use as herbicides” (FMC CORPORATION, priority 2015, dated 2024):

Columns and labels:
Assay type in all cases: in vivo
Kochia (Kochia scoparia) [1] = assay: Test A preemergence; details: Bassia scoparia, pre-emergence, 240 h, 0 to 100 scale where 0 is no effect and 100 is complete control, read-out: Kochia plant response rating
How it was run: (§1)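 Each rating is a visual injury score from 0 to 100 given about 10 d after treatment, judged against untreated controls kept alongside in the greenhouse. In loam soil–sand blend, seeds got a preemergence directed soil spray, while postemergence plants were 2 to 10 cm tall at spraying.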

[2] = tested on: barnyardgrass (Echinochloa crus-galli); assay: Test A preemergence; details: Echinochloa crus-galli, pre-emergence, 240 h, 0 to 100 scale where 0 is no effect and 100 is complete control, read-out: Barnyardgrass plant response rating
How it was run: as §1

[3] = tested on: giant foxtail (Setaria faberii); assay: Test A preemergence; details: Setaria faberi, pre-emergence, 240 h, 0 to 100 scale where 0 is no effect and 100 is complete control, read-out: Foxtail, Giant plant response rating
How it was run: as §1

[4] = tested on: pigweed (Amaranthus retroflexus); assay: Test A preemergence; details: Amaranthus retroflexus, pre-emergence, 240 h, 0 to 100 scale where 0 is no effect and 100 is complete control, read-out: Pigweed plant response rating
[5] = tested on: ragweed (common ragweed, Ambrosia elatior); assay: Test A preemergence; details: Ambrosia artemisiifolia, pre-emergence, 240 h, 0 to 100 scale where 0 is no effect and 100 is complete control, read-out: Ragweed plant response rating
How it was run: as §1

[6] = tested on: ryegrass, Italian (Italian ryegrass, Lolium multiflorum); assay: Test A preemergence; details: Lolium multiflorum, pre-emergence, 240 h, 0 to 100 scale where 0 is no effect and 100 is complete control, read-out: Ryegrass, Italian plant response rating
How it was run: as §1

[7] = tested on: Galium (catchweed bedstraw, Galium aparine); assay: Test A postemergence; details: Galium, post-emergence, 240 h
How it was run: as §1

Kochia (Kochia scoparia) [8] = assay: Test A postemergence; details: Bassia scoparia, post-emergence, 240 h
How it was run: as §1

[9] = tested on: barnyardgrass (Echinochloa crus-galli); assay: Test A postemergence; details: Echinochloa crus-galli, post-emergence, 240 h
How it was run: as §1

[10] = tested on: blackgrass (Alopecurus myosuroides); assay: Test A postemergence; details: Alopecurus myosuroides, post-emergence, 240 h
How it was run: as §1

corn (Zea mays) = assay: Test A postemergence; details: Zea mays, post-emergence, 240 h
How it was run: as §1

[11] = tested on: giant foxtail (Setaria faberii); assay: Test A postemergence; details: Setaria faberi, post-emergence, 240 h
How it was run: as §1

[12] = tested on: pigweed (Amaranthus retroflexus); assay: Test A postemergence; details: Amaranthus retroflexus, post-emergence, 240 h
How it was run: as §1

[13] = tested on: ragweed (common ragweed, Ambrosia elatior); assay: Test A postemergence; details: Ambrosia artemisiifolia, post-emergence, 240 h
How it was run: as §1

[14] = tested on: ryegrass, Italian (Italian ryegrass, Lolium multiflorum); assay: Test A postemergence; details: Lolium multiflorum, post-emergence, 240 h
How it was run: as §1

[15] = tested on: wheat (Triticum aestivum); assay: Test A postemergence; details: Triticum aestivum, post-emergence, 240 h
How it was run: as §1

[16] = tested on: barnyardgrass (Echinochloa crus-galli); assay: Test B flooded paddy test; details: Echinochloa crus-galli, 250 g ai/ha, Flood; 0 to 100 scale where 0 is no effect and 100 is complete control; read-out: Barnyardgrass plant response rating
How it was run: (§2)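 Response scored visually against untreated controls, 0 = no effect and 100 = complete control, 13–15 d after treatment in the greenhouse. Compounds added to paddy water held 3 cm above soil surface. Treatment given at 2-leaf stage.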

[17] = tested on: ducksalad (Heteranthera limosa); assay: Test B flooded paddy test; details: Heteranthera limosa, 250 g ai/ha, Flood; 0 to 100 scale where 0 is no effect and 100 is complete control; read-out: Ducksalad plant response rating
How it was run: as §2

rice (Oryra sativa) = assay: Test B flooded paddy test; details: Oryza sativa, 250 g ai/ha, Flood; 0 to 100 scale where 0 is no effect and 100 is complete control; read-out: Rice plant response rating
How it was run: as §2

[18] = tested on: sedge, umbrella (small-flower umbrella sedge, Cyperus difformis); assay: Test B flooded paddy test; details: Cyperus difformis, 250 g ai/ha, Flood; 0 to 100 scale where 0 is no effect and 100 is complete control; read-out: Sedge, Umbrella plant response rating
How it was run: as §2

[19] = 125 g ai/ha, preemergence, approx. 10 d

For `CN1C[C@H](c2cc(C(F)F)cs2)[C@@H](C(=O)Nc2cnccc2C(F)(F)F)C1=O` [Compound 1091], the pest or weed control at 31 g/ha (Kochia (Kochia scoparia) [1]; 31 g ai/ha, Preemergence) was 20%, the pest or weed control at 125 g/ha (Kochia (Kochia scoparia) [1]; [19]) was 40% and the pest or weed control at 31 g/ha ([2]; 31 g ai/ha, Preemergence) was 0%. It also gave a pest or weed control at 125 g/ha [2, 19] of 0%, a pest or weed control at 31 g/ha ([3]; 31 g ai/ha, Preemergence) of 50% and a pest or weed control at 125 g/ha [3, 19] of 100%. For the same molecule, the pest or weed control at 31 g/ha ([4]; 31 g ai/ha, Preemergence) was 10%, the pest or weed control at 125 g/ha [4, 19] was 0% and the pest or weed control at 31 g/ha ([5]; 31 g ai/ha, Preemergence) was 100%. It also gave a pest or weed control at 125 g/ha [5, 19] of 0%, a pest or weed control at 31 g/ha ([6]; 31 g ai/ha, Preemergence) of 0% and a pest or weed control at 125 g/ha [6, 19] of 0%. It also gave a pest or weed control at 125 g/ha ([7]; 125 g ai/ha, postemergence, visual injury on 0 to 100 scale (0 no effect, 100 complete control), approx. 10 d, read-out: Galium plant response rating) of 0%, a pest or weed control at 31 g/ha ([7]; Postemergence, 31 g ai/ha, visual injury after approx. 10 d, 0 to 100 scale, 0 no effect, 100 complete control, read-out: Plant response rating, Galium) of 0% and a pest or weed control at 125 g/ha (Kochia (Kochia scoparia) [8]; 125 g ai/ha, postemergence, visual injury on 0 to 100 scale (0 no effect, 100 complete control), approx. 10 d, read-out: Kochia plant response rating) of 0%. The pest or weed control at 31 g/ha (Kochia (Kochia scoparia) [8]; Postemergence, 31 g ai/ha, visual injury after approx. 10 d, 0 to 100 scale, 0 no effect, 100 complete control, read-out: Plant response rating, Kochia) was 0%, the pest or weed control at 125 g/ha ([9]; 125 g ai/ha, postemergence, visual injury on 0 to 100 scale (0 no effect, 100 complete control), approx. 10 d, read-out: Barnyardgrass plant response rating) was 0% and the pest or weed control at 31 g/ha ([9]; Postemergence, 31 g ai/ha, visual injury after approx. 10 d, 0 to 100 scale, 0 no effect, 100 complete control, read-out: Plant response rating, Barnyardgrass) was 0%. For the same molecule, the pest or weed control at 125 g/ha ([10]; 125 g ai/ha, postemergence, visual injury on 0 to 100 scale (0 no effect, 100 complete control), approx. 10 d, read-out: Blackgrass plant response rating) was 0%, the pest or weed control at 31 g/ha ([10]; Postemergence, 31 g ai/ha, visual injury after approx. 10 d, 0 to 100 scale, 0 no effect, 100 complete control, read-out: Plant response rating, Blackgrass) was 0% and the plant injury at 125 g/ha (corn (Zea mays); 125 g ai/ha, postemergence, visual injury on 0 to 100 scale (0 no effect, 100 complete control), approx. 10 d, read-out: Corn plant response rating) was 0%. It also gave a Corn plant response rating (crop injury, 0 = no effect, 100 = complete kill) at 31 g/ha (corn (Zea mays); Postemergence, 31 g ai/ha, visual injury after approx. 10 d, 0 to 100 scale, 0 no effect, 100 complete control) of 0%, a pest or weed control at 125 g/ha ([11]; 125 g ai/ha, postemergence, visual injury on 0 to 100 scale (0 no effect, 100 complete control), approx. 10 d, read-out: Foxtail, Giant plant response rating) of 0% and a pest or weed control at 31 g/ha ([11]; Postemergence, 31 g ai/ha, visual injury after approx. 10 d, 0 to 100 scale, 0 no effect, 100 complete control, read-out: Plant response rating, Foxtail, Giant) of 0%. It also gave a pest or weed control at 125 g/ha ([12]; 125 g ai/ha, postemergence, visual injury on 0 to 100 scale (0 no effect, 100 complete control), approx. 10 d, read-out: Pigweed plant response rating) of 30%, a pest or weed control at 31 g/ha ([12]; Postemergence, 31 g ai/ha, visual injury after approx. 10 d, 0 to 100 scale, 0 no effect, 100 complete control, read-out: Plant response rating, Pigweed) of 0% and a pest or weed control at 125 g/ha ([13]; 125 g ai/ha, postemergence, visual injury on 0 to 100 scale (0 no effect, 100 complete control), approx. 10 d, read-out: Ragweed plant response rating) of 0%. It also gave a pest or weed control at 31 g/ha ([13]; Postemergence, 31 g ai/ha, visual injury after approx. 10 d, 0 to 100 scale, 0 no effect, 100 complete control, read-out: Plant response rating, Ragweed) of 0%, a pest or weed control at 125 g/ha ([14]; 125 g ai/ha, postemergence, visual injury on 0 to 100 scale (0 no effect, 100 complete control), approx. 10 d, read-out: Ryegrass, Italian plant response rating) of 0% and a pest or weed control at 31 g/ha ([14]; Postemergence, 31 g ai/ha, visual injury after approx. 10 d, 0 to 100 scale, 0 no effect, 100 complete control, read-out: Plant response rating, Ryegrass, Italian) of 0%. The plant injury at 125 g/ha ([15]; 125 g ai/ha, postemergence, visual injury on 0 to 100 scale (0 no effect, 100 complete control), approx. 10 d, read-out: Wheat plant response rating) was 0%, the plant injury at 31 g/ha ([15]; Postemergence, 31 g ai/ha, visual injury after approx. 10 d, 0 to 100 scale, 0 no effect, 100 complete control, read-out: Plant response rating, Wheat) was 0% and the pest or weed control at 250 g/ha [16] was 0%. For the same molecule, the pest or weed control at 250 g/ha [17] was 0%, the pest or weed control at 250 g/ha (rice (Oryra sativa)) was 0% and the pest or weed control at 250 g/ha [18] was 0%.
